Entries after “also recorded” stand apart in the source; their conditions may differ. Where two headings read alike, the source gives them in different places.
What was measured:
[1] = target: electric eel acetylcholinesterase (Electrophorus electricus, UniProt O42275); conditions: read-out: Cholinesterase IC50; Table 3; acetylcholinesterase
Source text: We prepared cell fractions from rat brain homogenates, and assayed membrane FAAH activity and cytosol MGL activity using anandamide [ethanolamine-3H] (American Radiolabeled Chemicals, ARC (St. Louis Mo.), 60 Ci/mmol) and 2-mono-oleoyl-glycerol-[glycerol-1,2,3^−3H] (ARC, St. Louis Mo., 20 Ci/mmol), respectively, as substrates (Dinh, T. Proc. Natl. Acad. Sci. U.S.A. (2002)). We conducted [^3H]anandamide transport assays in human astrocytoma cells (Piomelli, D. et al., Proc. Natl. Acad. Sci. U.S.A., 96, 5802-5807 (1999)); CB1 and CB2 binding assays in rat cerebellar membranes and CB2-overexpressing Chinese hamster ovary cells (Receptor Biology-Perkin Elmer, Wellesley, Mass.), respectively, using [^3H]WIN-55212-2 (NEN-Dupont, Boston, Mass., 40-60 Ci/mmol) as a ligand (Devane, W. A. et al. Science, 258, 1946-1949 (1992)); cholinesterase assays with a commercial kit (Sigma, St. Louis, Mo.), using purified enzymes (electric eel acetylcholinesterase type V-S and horse serum cholinesterase; both from Sigma, St. Louis, Mo.) and following manufacturer's instructions.

FAAH = target: T1, FAAH (Rattus norvegicus, UniProt P97612); experiment: biochemical; type: biochemical; set-up: from tissue; host or cells: rat brain (membrane fraction of homogenate; Wistar rats)
T1 sequence (P97612 1-579): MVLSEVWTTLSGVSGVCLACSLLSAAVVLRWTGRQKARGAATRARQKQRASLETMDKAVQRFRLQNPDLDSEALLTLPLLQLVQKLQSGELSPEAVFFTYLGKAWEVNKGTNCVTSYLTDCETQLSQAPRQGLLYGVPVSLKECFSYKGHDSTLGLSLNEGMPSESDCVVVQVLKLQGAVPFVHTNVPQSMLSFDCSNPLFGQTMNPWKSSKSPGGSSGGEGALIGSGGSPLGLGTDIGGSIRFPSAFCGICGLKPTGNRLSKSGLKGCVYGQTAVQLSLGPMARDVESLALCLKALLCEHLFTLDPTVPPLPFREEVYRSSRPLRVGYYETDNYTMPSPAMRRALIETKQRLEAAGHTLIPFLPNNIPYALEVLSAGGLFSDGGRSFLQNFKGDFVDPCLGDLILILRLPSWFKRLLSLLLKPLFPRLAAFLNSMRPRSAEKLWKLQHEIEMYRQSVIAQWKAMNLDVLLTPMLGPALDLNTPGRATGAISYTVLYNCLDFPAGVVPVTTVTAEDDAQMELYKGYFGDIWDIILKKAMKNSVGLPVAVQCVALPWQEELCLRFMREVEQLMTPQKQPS

rat cortical neurons = experiment: Transport, accumulation and release of non-metabolized [3H]anandamide in cortical neurons; type: cell-based; conditions: AM404 10 μM
[2] = Table 3, read-out: Amidohydrolase IC50
[3] = Table 4, FAAH IC50, read-out: Inhibition of Amidohydrolase IC50

electric eel acetylcholinesterase, sequence (O42275 whole entry): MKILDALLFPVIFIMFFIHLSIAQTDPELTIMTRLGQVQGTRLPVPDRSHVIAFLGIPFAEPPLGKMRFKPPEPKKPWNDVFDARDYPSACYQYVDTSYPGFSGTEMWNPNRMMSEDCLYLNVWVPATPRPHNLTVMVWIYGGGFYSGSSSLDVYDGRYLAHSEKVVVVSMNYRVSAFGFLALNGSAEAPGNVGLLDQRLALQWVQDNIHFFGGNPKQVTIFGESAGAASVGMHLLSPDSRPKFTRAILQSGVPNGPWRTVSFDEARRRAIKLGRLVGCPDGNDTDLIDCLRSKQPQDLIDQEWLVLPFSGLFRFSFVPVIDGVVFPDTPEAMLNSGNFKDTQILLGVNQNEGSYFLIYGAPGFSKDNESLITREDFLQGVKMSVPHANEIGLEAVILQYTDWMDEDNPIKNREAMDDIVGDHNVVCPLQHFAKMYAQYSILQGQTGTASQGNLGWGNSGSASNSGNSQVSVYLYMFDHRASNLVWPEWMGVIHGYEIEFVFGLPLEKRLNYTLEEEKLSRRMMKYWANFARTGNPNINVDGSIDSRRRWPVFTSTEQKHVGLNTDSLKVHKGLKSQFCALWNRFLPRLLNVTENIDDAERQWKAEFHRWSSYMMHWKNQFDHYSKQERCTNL

Compound | IC50 [1] | IC50 (FAAH; [2]) | IC50 (FAAH; [3]) | accumulation of non-metabolized [3H]anandamide in neurons (rat cortical neurons; 4-min incubation, UCM532 3 μM, UCM597 10 nM) | effect on [3H]anandamide release from UCM597-treated neurons (rat cortical neurons; 15-min incubation) | inhibition of FAAH activity (in words) (FAAH) | IC50 (FAAH; IC50(nM))
2.3-dihyrdo-2.2-dimethyl-7-benzogumaol N-methylcarbamate [PL#15, reference compound] | 0.56 µM | > 30000 nM | > 30000 nM | – | – | – | –
4-fluoraphenyl N-butylcarbamate [PL#12] | > 30 µM | 11500 nM | 11500 nM | – | – | – | –
CCCCC/C=C\C/C=C\C/C=C\C/C=C\CCCC(=O)Nc1ccc(O)cc1 [AM404, N-(4-hydroxyphenyl)arachidonamide, reference compound] | – | – | – | significantly reducing; also recorded: reduces | not inhibited | – | –
CNC(=O)Oc1cccc2ccccc12 [PL#18, carbaryl, reference compound] | 3.1 µM | – | – | – | – | ineffective | > 100000 nM
hexyl-N-cyclohexyl carbamate [PL#9] | > 30 µM | 3700 nM | 3700 nM | – | – | – | –
